Data set [1] in a line: Cell penetration or infiltration of polypeptides. The class given is cell-based. Particulars: penetration of the peptide with RRMKWKK taken as 100%. The text has this:
In this example, the sequence was modified based on SEQ ID NO.: 1. Some preferred modification based on the tested results included: adding a disulfide linkage within the peptide, or adding a cell-penetrating element.

For data set [2] the following is noted: plasma.
Description: (§4) For the YAP inhibitory polypeptides modified in above (a) and (b), the IC50 values for TEAD binding and the stability in plasma were measured.
The nature of data set [3]: Stability in plasma (residual peptide).
Description: as §4
The test system of data set [4] is BEL7404. The class given is cell-based. On the procedure:
(§1) The hepatoma cell line BEL7404 (purchased from The Chinese Academy of Sciences cell bank) was a cell line with high expression of YAP protein; HCCLM3 (purchased from The Chinese Academy of Sciences cell bank) was a cell line with low expression of YAP protein. The hepatoma cell lines (BEL7404 or HCCLM3) were inoculated into a 96-well plate at the concentration of 2000 cells/well, and incubated overnight in RPMI1640 containing 1% bovine serum at 37° C. The hepatoma cell lines were treated with polypeptides having different concentrations at 37° C. for 72 h.
(§2) Moreover, IC50 values of the cells in 1.1 were determined using CCK-8 kit.
(§3) The polypeptide represented by SEQ ID NO.:1 was further modified. The IC50 values of the polypeptides at a concentration of 1% in cell cultivating for 72 h were measured.

The subject of another data set is HCCLM3. The class given is cell-based. The method, then:
as §1, §2, §3

Data set [5] has as its system BEL7404. Description: Cell proliferation inhibition of BEL7404 by liposome formulations / acylated polypeptides, CCK-8. The class given is cell-based.
A further data set deals with MHCC97L. Briefly: Cell proliferation inhibition of MHCC97L by liposome formulations / acylated polypeptides, CCK-8. In kind it is cell-based. The method, then:
MHCC97L (ATCC) cells were seeded in 96-well plates with 10% FBS DMEM medium at a density of 4000 cells/well and incubated overnight at 37° C. […] The cell viability was determined by CCK-8 kit.

The next data set is described as follows: in vitro. The following applies: plasma.
Another data set has as its target TEAD (UniProt P28347). Description: TEAD binding (TR-FRET test). The method, then:
The interaction of the two molecules makes the two fluorophores close to each other and generate energy transfer, and then fluoresce at specific wavelength is transmitted.
The sequences of the modified peptides were represented by SEQ ID NOs.: 8 and 9. The IC50 values for TEAD binding and stability in plasma were measured.
The modified polypeptides were tested to measure IC50 values for TEAD binding and stability in plasma.
In general terms: TR-FRET usually uses a lanthanide donor and a delayed reading to cut background.

Like-named read-outs stand apart in the source and are kept apart here. Positions of bridges follow the written chain, without caps; N, C: chain ends. Non-standard residues stand in square brackets, D forms with d. Residues, ends and D or L forms follow the SMILES beside them. No end group written: not given here. *: point of attachment. Phe(3-Cl) = N[C@@H](Cc1cccc(Cl)c1)C(=O)O; Stearoyl = CCCCCCCCCCCCCCCCCC(=O)*; hCys = N[C@@H](CCS)C(=O)O; Nle = CCCC[C@H](N)C(=O)O; Orn = NCCC[C@H](N)C(=O)O; Dab = NCC[C@H](N)C(=O)O

Chain of TEAD (P28347 whole entry): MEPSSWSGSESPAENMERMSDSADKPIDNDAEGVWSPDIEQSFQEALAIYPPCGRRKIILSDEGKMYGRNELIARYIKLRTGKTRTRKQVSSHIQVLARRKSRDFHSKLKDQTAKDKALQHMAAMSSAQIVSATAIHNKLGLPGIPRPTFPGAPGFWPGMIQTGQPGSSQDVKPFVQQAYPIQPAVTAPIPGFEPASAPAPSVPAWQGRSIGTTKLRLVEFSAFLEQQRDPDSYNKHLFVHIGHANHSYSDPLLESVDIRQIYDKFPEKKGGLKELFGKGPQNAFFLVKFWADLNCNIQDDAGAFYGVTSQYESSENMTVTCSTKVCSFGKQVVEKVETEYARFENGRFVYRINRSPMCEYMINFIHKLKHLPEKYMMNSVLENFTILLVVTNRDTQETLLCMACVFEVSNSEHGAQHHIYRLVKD
Description for in vitro: as §4

For the compound “3: Peptide (SEQ ID NO.: 1) + Cell-penetrating element 1 (RRMKWKK, SEQ ID NO.: 13) (VPMRLRKLPDSFFKPPERRMKWKK; cell penetrating element; listed as Homo sapiens) [Peptide 3]”, the “Percentage of Cell penetration or infiltration” value (“Percentage” below) in data set [1] came out at 100%. The “Stability (4 h)” value in data set [2] is 49%.
Take “4: Peptide (SEQ ID NO.: 1) + Cell-penetrating element 2 (RGRKKRRQRRR, SEQ ID NO.: 14) (VPMRLRKLPDSFFKPPERGRKKRRQRRR; cell penetrating element; listed as Homo sapiens) [Peptide 4]”: the “Percentage” value in data set [1] worked out at 135%.
For orientation: IC50 means the midpoint of a concentration-inhibition curve. On to `CSCC[C@H](NC(=O)[C@@H]1CCCN1C(=O)[C@@H](N)C(C)C)C(=O)N[C@@H](CCCNC(=N)N)C(=O)N[C@@H](CC(C)C)C(=O)N[C@@H](CCCNC(=N)N)C(=O)N[C@@H](CCCCN)C(=O)N[C@@H](CC(C)C)C(=O)N1CCC[C@H]1C(=O)N[C@@H](CC(=O)O)C(=O)N[C@@H](CO)C(=O)N[C@@H](Cc1ccccc1)C(=O)N[C@@H](Cc1ccccc1)C(=O)N[C@@H](CCCCN)C(=O)N1CCC[C@H]1C(=O)N1CCC[C@H]1C(=O)N[C@@H](CCC(=O)O)C(=O)O` [SEQ ID NO.: 1], for which the “stability (in words)” value in [3] was “low stability”. In data set [3] (plasma), the amount remaining at 4 h was 0%. Besides, the “Stability (>24 h)” value in data set [3] (plasma, percentage of residual peptides after >24 h) is recorded as 0%. Further, the 50% inhibitory concentration (IC50) was found to be 388 ± 43.6 µM in the data set with BEL7404 [4] (72 h) and 809 ± 27.4 µM with HCCLM3 (72 h).
For `CCCCCCCCCCCCCCCCCC(=O)NCCCC[C@H](NC(=O)[C@@H]1CSSCC[C@H](NC(=O)[C@H](CCCCN)NC(=O)[C@H](CCCCN)NC(=O)[C@H](CC(C)C)NC(=O)[C@H](Cc2cccc(Cl)c2)NC(=O)[C@@H]2CCCN2C(=O)[C@@H](NC(C)=O)C(C)C)C(=O)N[C@@H](CCCC)C(=O)N2CCC[C@H]2C(=O)N[C@@H](C)C(=O)N[C@@H](CO)C(=O)N[C@@H](Cc2ccccc2)C(=O)N[C@@H](CCCCN)C(=O)N2CCC[C@H]2C(=O)N2CCC[C@H]2C(=O)N1)C(N)=O` [P49 polypeptide] (Ac-VP[Phe(3-Cl)]LKK[hCys][Nle]PASFKPPCK(Stearoyl)-NH2; disulfide 7-16), the IC50 with BEL7404 [5] was found to be 2.02 ± 0.39 µM; in the data set with MHCC97L it was 7.83 ± 2.69 µM.
Regarding `CSCC[C@H](NC(=O)[C@@H]1CCCN1C(=O)[C@@H](N)C(C)C)C(=O)N[C@H]1CCSSC[C@@H](C(=O)N[C@@H](CCCCN)C(=O)N2CCC[C@H]2C(=O)N2CCC[C@H]2C(=O)N[C@@H](CCC(=O)O)C(=O)O)NC(=O)[C@H](Cc2ccccc2)NC(=O)[C@H](CO)NC(=O)[C@H](CC(=O)O)NC(=O)[C@@H]2CCCN2C(=O)[C@H](CC(C)C)NC(=O)[C@H](CCCCN)NC(=O)[C@H](CCCNC(=N)N)NC(=O)[C@H](CC(C)C)NC1=O` [Peptide 2], in data set [3] (plasma, Stability (4 h), plasma, percentage of residual peptides after 4 h), the amount remaining at 4 h came out at 93%. In data set [1], the “Percentage” value is recorded as 8%.
Take “32 (VPXLXKKXPASFKCPPRRMKWKK; (3)..(3) Xaa=(3Cl-)F; (5)..(5) Xaa=Hcy; (8)..(8) Xaa=Nle) [compound 32]”: the IC50 in the data set on BEL7404 [4] (concentration of 1% in cell cultivating for 72 h, read-out: IC50 BEL7404) is 38.4 ± 3.8 µM; with HCCLM3 (concentration of 1% in cell cultivating for 72 h, read-out: IC50 HCCLM3), 319 ± 17.5 µM.
For PAGWEMAKTSSGQRYF [compound 20], the IC50 in the data set with BEL7404 [4] (72 h) is 444 ± 46.5 µM; with HCCLM3 (72 h) it was over 1000 µM.
As to `CSCC[C@H](NC(=O)[C@@H]1CCCN1C(=O)[C@@H](N)C(C)C)C(=O)N[C@H]1CCSSC[C@@H](C(=O)N[C@@H](CC(=O)O)C(=O)N2CCC[C@H]2C(=O)N2CCC[C@H]2C(=O)N[C@@H](CCC(=O)O)C(=O)O)NC(=O)[C@H](Cc2ccccc2)NC(=O)[C@H](CO)NC(=O)[C@H](CS)NC(=O)[C@@H]2CCCN2C(=O)[C@H](CC(C)C)NC(=O)[C@H](CCCCN)NC(=O)[C@H](CCCNC(=N)N)NC(=O)[C@H](CC(C)C)NC1=O` [compound 9] (H-VPM[hCys]LRKLPCSFCDPPE-OH; disulfide 4-13), the share remaining at 4 h in “in vitro” came to 100%. In addition, at TEAD, the IC50 came to 0.025 µM.
The like results for `CC(C)C[C@@H]1NC(=O)[C@@H](NC(=O)[C@H](Cc2ccccc2)NC(=O)[C@@H]2CCCN2C(=O)[C@@H](N)C(C)C)CCSSC[C@@H](C(=O)N[C@@H](CCCCN)C(=O)N2CCC[C@H]2C(=O)N2CCC[C@H]2C(=O)N[C@@H](CCC(=O)O)C(=O)O)NC(=O)[C@H](Cc2ccccc2)NC(=O)[C@H](CO)NC(=O)[C@H](CC(=O)O)NC(=O)[C@@H]2CCCN2C(=O)[C@H](CC(C)C)NC(=O)[C@H](CCN)NC(=O)[C@H](CCCNC(=N)N)NC1=O` [compound 6] (H-VPF[hCys]LR[Dab]LPDSFCKPPE-OH; disulfide 4-13 (inferred); N-terminus and C-terminus assumed) were, in that order, 98% and 0.028 µM.
PQGQGPPSGPGQPAPA [compound 16]: the IC50 in the data set with BEL7404 [4] (72 h) is 242 ± 27.2 µM; in the data set with HCCLM3 (72 h), over 1000 µM.
`CSCC[C@H](NC(=O)[C@@H]1CCCN1C(=O)[C@@H](N)C(C)C)C(=O)N[C@H]1CSSC[C@@H](C(=O)N[C@@H](Cc2c[nH]cn2)C(=O)N2CCC[C@H]2C(=O)N2CCC[C@H]2C(=O)N[C@@H](CCC(=O)O)C(=O)O)NC(=O)[C@H](Cc2ccccc2)NC(=O)[C@H](CO)NC(=O)[C@H](CCC(=O)O)NC(=O)[C@@H]2CCCN2C(=O)[C@H](CC(C)C)NC(=O)[C@H](CCCCN)NC(=O)[C@H](CCCNC(=N)N)NC(=O)[C@H](CC(C)C)NC1=O` [compound 8] (H-VPMCLRKLPESFCHPPE-OH; disulfide 4-13; N-terminus and C-terminus assumed): the amount remaining at 4 h in “in vitro” came to 105%. Moreover, the IC50 at TEAD was 0.028 µM.
The like results for `CC(C)C[C@@H]1NC(=O)[C@@H](NC(=O)[C@H](Cc2ccccc2)NC(=O)[C@@H]2CCCN2C(=O)[C@@H](N)C(C)C)CCSSC[C@@H](C(=O)N[C@@H](CCCCN)C(=O)N2CCC[C@H]2C(=O)N2CCC[C@H]2C(=O)N[C@@H](CCC(=O)O)C(=O)O)NC(=O)[C@H](Cc2ccccc2)NC(=O)[C@H](CO)NC(=O)[C@H](CC(=O)O)NC(=O)[C@@H]2CCCN2C(=O)[C@H](CC(C)C)NC(=O)[C@H](CCCN)NC(=O)[C@H](CCCNC(=N)N)NC1=O` [compound 5] (H-VPF[hCys]LR[Orn]LPDSFCKPPE-OH; disulfide 4-13 (inferred); N-terminus and C-terminus assumed) were, in that order, 99% and 0.043 µM.

Values taken from US10441628B2, “High activity tumour inhibitor and preparation method and use thereof” (BAO KANG BIOMEDICAL HEALTHCARE INC, priority 2014, dated 2019).
